Source: patent US20140378513A1, “USE OF FUNGICIDES IN LIQUID SYSTEMS” (priority 2011, published 2014)

Assays:
[1] = tested on: Pest in infected Scenedesmus dimorphus culture; test: Fungicide efficacy on pest control in infected microalgae culture; assay type: cell-based; conditions: for Rating: rating scale of 0 to 3 by percent efficacy; for positive efficacy in a first trial confirmed in a second trial: Table 6; for activity at 5 ppm / activity at 2 ppm: Tetradesmus dimorphus, read-out: Scenedesmus dimorphus efficacy; for Scenedesmus dimorphus Efficacy confirmation: second trial
Excerpt: Failure to treat an infected culture results in the collapse and loss of the microalgae culture. […] Test fungicides are graded on a rating scale of 0 to 3 where a score of 0 represents an efficacy of between 0 and 25%, a score of 1 represents an efficacy of between 26 and 50%, a score of 2 represents an efficacy of between 51 and 75% and a score of 3 represents an efficacy of between 76 and 100%.

microalgae = test: Ranges of microalgae toxicity (serial dilution of fungicide in growing culture); conditions: range in which fungicide begins to show growth effects on microalgae
Excerpt: The present disclosure provides for the introduction of fungicides at an effective concentration. Effective concentrations may be determined according to manufacturer's instructions or may be determined empirically. An effective concentration of a fungicide is not toxic to the microalgae being cultured in the liquid system. Methods to determine toxicity are known in the art and include serial dilutions of a test fungicide in a growing liquid culture of microalgae. One of skill in the art would understand that different microalgae may have different ranges of toxicity that may be determined by growth of a microalga in the presence of a serial dilution of a fungicide.
Algae are screened for sensitivity to chemicals by preparing 180 ml of a log phase culture. The log phase culture is transferred into a 96 well microtiter plate at an absorbance at 750 nm (OD750 or A750) of ˜0.2. Twenty microliters of media is provided into the top row as a negative control, the middle six rows receive a 20 microliter dilution, which is a 10 fold dilution of the chemical at each transfer, of the chemical across an appropriate concentration gradient, and the bottom row receives 20 microliter of the solvent used to solubilize the pesticide alone as a control. The total volume per well is 200 μl. Each chemical is tested in triplicate. The growth of the algae is tracked daily by measuring the A750. After 8 days, the growth rate of the algae is measured by fitting the growth curve to a log model and deriving the maximum growth rate (r). The impact of the chemical is calculated by comparing the r of the algae at various dilutions of the pesticide to the control.

Scenedesmus dimorphus = test: Algae sensitivity screen, 96 well, growth rate by A750 over 8 days; assay type: cell-based
Description: (§1) The total volume per well is 200 μl. Each chemical is tested in triplicate.

Scenedesmus species = test: as above; assay type: cell-based; conditions: 8 days
Description: as §1

Desmid species = test: as above; assay type: cell-based
Description: as §1

[2] = log phase culture, 10 fold dilutions

CO/C=C(/C(=O)OC)c1ccccc1Oc1cc(Oc2ccccc2C#N)ncn1 [azoxystrobin]
Rating [1]: 0 (a score of 0 represents an efficacy of between 0 and 25%)

O=C(Nc1ccccc1)c1ccccc1I [benodanil, 2-Iodo-N-phenylbenzamide]
Ranges of Microalgae toxicity (microalgae): 0.3125-1.25 ppm
Scenedesmus dimorphus toxicity (Scenedesmus dimorphus; [2]): 0.3125-1.25 ppm
Scenedesmus species toxicity (Scenedesmus species; [2]): 0.3125-1.25 ppm
positive efficacy in a first trial confirmed in a second trial [1]: not confirmed
activity at 5 ppm [1]: 38.7%
Rating [1]: 0 (a score of 0 represents an efficacy of between 0 and 25%)

CSC(=O)c1cccc2nnsc12 [benzo(1,2,3)thiadiazole-7-carbothioic acid-5-methyl ester]
Scenedesmus dimorphus efficacy ([1]; @ 0.8 ppm, percent of growth of treated culture compared to uninfected control growth rate, first trial): 17.5% @ 0.8 ppm

CCC(C)c1cc([N+](=O)[O-])cc([N+](=O)[O-])c1OC(=O)C=C(C)C (stereo not drawn) [binapacryl]
Ranges of Microalgae toxicity (microalgae): 0.125-0.5 ppm
Scenedesmus dimorphus toxicity (Scenedesmus dimorphus; [2]): 0.125-0.5 ppm
Scenedesmus species toxicity (Scenedesmus species; [2]): 0.125-0.5 ppm

O=C(Nc1ccccc1-c1ccc(Cl)cc1)c1cccnc1Cl [boscalid]
Rating [1]: 0 (a score of 0 represents an efficacy of between 0 and 25%)

O=[N+]([O-])C(Br)(CO)CO [bronopol, 2-bromo-2-nitropropane-1,3-diol]
activity at 5 ppm [1]: 14.3%
Rating [1]: 0 (a score of 0 represents an efficacy of between 0 and 25%)

O=C1C2CC=CCC2C(=O)N1SC(Cl)(Cl)Cl (stereo not drawn) [captan]
Ranges of Microalgae toxicity (microalgae): 1.953-125 ppm
Scenedesmus dimorphus toxicity (Scenedesmus dimorphus; [2]): 1.953-7.813 ppm
Scenedesmus species toxicity (Scenedesmus species; [2]): 31.25-125 ppm
Desmid species toxicity (Desmid species; [2]): 31.25-125 ppm
Rating [1]: 0 (a score of 0 represents an efficacy of between 0 and 25%)

CC1=C(C(=O)Nc2ccccc2)SCCO1 [carboxine, 6-methyl-N-phenyl-2,3-dihydro-1,4-oxathiine-5-carboxamide]
Ranges of Microalgae toxicity (microalgae): 0.977-3.906 ppm
Scenedesmus dimorphus toxicity (Scenedesmus dimorphus; [2]): 0-0.244 ppm
Scenedesmus species toxicity (Scenedesmus species; [2]): 0.244-0.977 ppm
Desmid species toxicity (Desmid species; [2]): 0.977-3.906 ppm
positive efficacy in a first trial confirmed in a second trial [1]: not confirmed
activity at 5 ppm [1]: 24.6%
Rating [1]: 0 (a score of 0 represents an efficacy of between 0 and 25%)

Cc1ccc(-c2c(Cl)nc(C#N)n2S(=O)(=O)N(C)C)cc1 [cyazofamid]
Ranges of Microalgae toxicity (microalgae): 0.03125-0.125 ppm
Scenedesmus dimorphus toxicity (Scenedesmus dimorphus; Scenedesmus dimorphus): 0.03125-0.125 ppm
Scenedesmus species toxicity (Scenedesmus species; Scenedesmus species): 0.03125-0.125 ppm
Desmid species toxicity (Desmid species; Desmid species): 0.125-0.500 ppm
Rating [1]: 0 (a score of 0 represents an efficacy of between 0 and 25%)

CCNC(=O)NC(=O)/C(C#N)=N/OC [cymoxanil]
Rating [1]: 0 (a score of 0 represents an efficacy of between 0 and 25%)

Cc1cc(C2CC2)nc(Nc2ccccc2)n1 [cyprodinil, 4-Cyclopropyl-6-methyl-N-phenylpyrimidin-2-amine]
activity at 2 ppm [1]: 8.1%
Rating [1]: 0 (a score of 0 represents an efficacy of between 0 and 25%)

N#CC(Br)(Br)C(N)=O [dibromocyanoacetamide, 2,2-dibromo-2-cyanoacetamide]
positive efficacy in a first trial confirmed in a second trial [1]: not confirmed
activity at 5 ppm [1]: 35.4%
Rating [1]: 0 (a score of 0 represents an efficacy of between 0 and 25%)

CNC(=O)/C(=N/OC)c1ccccc1COc1cc(C)ccc1C [dimoxystrobin]
Ranges of Microalgae toxicity (microalgae): 0.004-0.0625 ppm
Scenedesmus dimorphus toxicity (Scenedesmus dimorphus; [2]): 0.0156-0.0625 ppm
Scenedesmus species toxicity (Scenedesmus species; [2]): 0.0156-0.0625 ppm
Desmid species toxicity (Desmid species; [2]): 0.004-0.0156 ppm
Rating [1]: 0 (a score of 0 represents an efficacy of between 0 and 25%)

N#Cc1sc2c(=O)c3ccccc3c(=O)c=2sc1C#N [dithianon, 5,10-dioxobenzo[g][1,4]benzodithiine-2,3-dicarbonitrile]
Ranges of Microalgae toxicity (microalgae): 0.625-2.5 ppm
Scenedesmus dimorphus toxicity (Scenedesmus dimorphus; Scenedesmus dimorphus): 0.625-2.5 ppm
Scenedesmus dimorphus Efficacy confirmation ([1]; @ 5 ppm): 52.2% @ 5 ppm
activity at 5 ppm [1]: 37%
Rating [1]: 2 (a score of 2 represents an efficacy of between 51 and 75%)

CC1CN(C2CCCCCCCCCCC2)CC(C)O1 (stereo not drawn) [dodemorph]
Ranges of Microalgae toxicity (microalgae): 0.195-0.781 ppm
Scenedesmus dimorphus toxicity (Scenedesmus dimorphus; [2]): 0.195-0.781 ppm
Scenedesmus species toxicity (Scenedesmus species; [2]): 0.195-0.781 ppm
Rating [1]: 0 (a score of 0 represents an efficacy of between 0 and 25%)

CCCCCCCCCCCCNC(=N)N [dodine, dodecylguanidinium acetate]
Scenedesmus dimorphus Efficacy confirmation ([1]; @ 2 ppm): 100% @ 2 ppm
activity at 2 ppm [1]: 93.9%
Rating [1]: 3 (a score of 3 represents an efficacy of between 76 and 100%)
